Reference: ChEMBL document CHEMBL4507276 (2021)

Columns and labels:
[1] = molecular target: Mitogen-activated protein kinase kinase kinase 14 (Homo sapiens) (UniProt Q99558); details: Compound concentration 1000.0 nM
[2] = molecular target: Phosphatidylinositol 4-kinase beta (Homo sapiens) (UniProt Q9UBF8); details: Compound concentration 1000.0 nM
[3] = molecular target: T1, MAP kinase-activated protein kinase 5 (Homo sapiens) (UniProt Q8IW41); assay: MAPKAPK5 Invitrogen selectivity data (BI); details: Compound concentration 3.0 uM
T1 sequence (whole entry): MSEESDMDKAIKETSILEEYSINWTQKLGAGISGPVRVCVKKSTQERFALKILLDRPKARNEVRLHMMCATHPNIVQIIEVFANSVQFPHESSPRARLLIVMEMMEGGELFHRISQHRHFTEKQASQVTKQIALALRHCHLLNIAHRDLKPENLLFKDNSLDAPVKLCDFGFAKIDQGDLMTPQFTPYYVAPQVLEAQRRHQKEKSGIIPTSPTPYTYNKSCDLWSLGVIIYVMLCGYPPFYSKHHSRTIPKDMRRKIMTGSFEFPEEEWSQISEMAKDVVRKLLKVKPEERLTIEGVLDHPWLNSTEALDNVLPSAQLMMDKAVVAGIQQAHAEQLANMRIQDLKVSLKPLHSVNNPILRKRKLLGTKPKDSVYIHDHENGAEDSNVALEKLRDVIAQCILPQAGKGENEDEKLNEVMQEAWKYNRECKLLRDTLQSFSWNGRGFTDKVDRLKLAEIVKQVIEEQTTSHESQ

[4] = molecular target: T2, Dual specificity mitogen-activated protein kinase kinase 3 (Homo sapiens) (UniProt P46734); assay: MAP2K3 Invitrogen selectivity data (BI); details: Compound concentration 3.0 uM
T2 sequence (whole entry): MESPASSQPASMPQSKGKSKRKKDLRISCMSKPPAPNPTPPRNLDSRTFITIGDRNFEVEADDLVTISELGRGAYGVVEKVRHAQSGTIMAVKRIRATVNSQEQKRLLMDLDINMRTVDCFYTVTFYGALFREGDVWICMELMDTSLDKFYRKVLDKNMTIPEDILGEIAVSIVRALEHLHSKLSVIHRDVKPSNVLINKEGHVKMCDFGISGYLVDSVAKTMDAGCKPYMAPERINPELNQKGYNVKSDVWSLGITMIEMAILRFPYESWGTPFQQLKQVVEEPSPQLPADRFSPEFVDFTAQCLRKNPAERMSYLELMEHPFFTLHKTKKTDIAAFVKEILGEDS

[5] = molecular target: xanthine dehydrogenase/oxidase (Bos taurus, UniProt P80457); assay: SUPOXXANOXID Cerep selectivity data (BI); design: mode of action inhibitor; details: cattle, xanthine oxidase enzyme assay; compound concentration 20 uM; read-out: % Ctrl
[6] = molecular target: Sodium-dependent noradrenaline transporter (Homo sapiens) (UniProt P23975); assay: NETRANS/H Eurofins-Panlabs selectivity data (BI); details: Compound concentration 10.0 uM
Sequence of Sodium-dependent noradrenaline transporter (Homo sapiens) (P23975 whole entry): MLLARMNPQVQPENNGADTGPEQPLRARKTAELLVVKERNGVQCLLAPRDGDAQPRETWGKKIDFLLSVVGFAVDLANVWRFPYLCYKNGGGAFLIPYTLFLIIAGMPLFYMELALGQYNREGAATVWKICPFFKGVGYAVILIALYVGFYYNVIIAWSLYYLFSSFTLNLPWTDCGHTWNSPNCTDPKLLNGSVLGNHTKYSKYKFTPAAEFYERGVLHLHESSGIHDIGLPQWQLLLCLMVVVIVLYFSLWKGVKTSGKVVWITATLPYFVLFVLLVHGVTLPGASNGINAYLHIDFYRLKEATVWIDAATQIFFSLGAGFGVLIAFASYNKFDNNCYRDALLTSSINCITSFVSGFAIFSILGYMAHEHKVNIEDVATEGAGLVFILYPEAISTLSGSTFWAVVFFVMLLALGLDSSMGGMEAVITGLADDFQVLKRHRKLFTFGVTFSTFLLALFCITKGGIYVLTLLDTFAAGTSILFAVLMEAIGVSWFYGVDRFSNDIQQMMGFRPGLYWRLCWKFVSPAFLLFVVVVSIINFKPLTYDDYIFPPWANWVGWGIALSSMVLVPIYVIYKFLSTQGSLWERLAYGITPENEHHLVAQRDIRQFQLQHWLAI

[7] = molecular target: Serine/threonine-protein kinase MRCK beta (Homo sapiens) (UniProt Q9Y5S2); assay: CDC42 BPB Invitrogen selectivity data (BI); details: Compound concentration 3.0 uM
[8] = molecular target: Leukocyte tyrosine kinase receptor (Homo sapiens) (UniProt P29376); assay: LTK Invitrogen selectivity data (BI); details: Compound concentration 3.0 uM
[9] = molecular target: Tyrosine-protein kinase receptor UFO (Homo sapiens) (UniProt P30530); assay: AXL Invitrogen selectivity data (BI); details: Compound concentration 3.0 uM
[10] = molecular target: Protein kinase C beta type (Homo sapiens) (UniProt P05771); assay: PRKCB1 Invitrogen selectivity data (BI); details: Compound concentration 3.0 uM
Sequence of Protein kinase C beta type (Homo sapiens) (P05771 2-671 limits assumed): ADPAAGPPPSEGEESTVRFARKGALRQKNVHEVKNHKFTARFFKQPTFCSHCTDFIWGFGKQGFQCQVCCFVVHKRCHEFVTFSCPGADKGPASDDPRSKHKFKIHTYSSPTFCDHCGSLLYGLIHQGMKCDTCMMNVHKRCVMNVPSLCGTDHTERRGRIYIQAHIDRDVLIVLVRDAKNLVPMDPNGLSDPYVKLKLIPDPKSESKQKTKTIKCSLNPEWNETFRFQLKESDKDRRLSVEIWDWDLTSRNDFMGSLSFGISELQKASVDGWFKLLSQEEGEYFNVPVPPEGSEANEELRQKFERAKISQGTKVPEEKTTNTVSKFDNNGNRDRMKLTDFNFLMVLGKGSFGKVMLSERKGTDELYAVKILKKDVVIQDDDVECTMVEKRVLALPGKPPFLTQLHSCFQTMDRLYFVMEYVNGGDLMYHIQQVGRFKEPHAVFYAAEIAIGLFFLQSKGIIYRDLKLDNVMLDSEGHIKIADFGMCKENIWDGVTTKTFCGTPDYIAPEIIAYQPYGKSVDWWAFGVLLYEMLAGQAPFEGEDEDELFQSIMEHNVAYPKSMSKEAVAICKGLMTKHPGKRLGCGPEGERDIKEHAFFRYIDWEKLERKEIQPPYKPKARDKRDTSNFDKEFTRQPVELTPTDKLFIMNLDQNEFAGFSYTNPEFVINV

[11] = molecular target: Serine/threonine-protein kinase B-raf (Homo sapiens) (UniProt P15056); assay: BRAF Invitrogen selectivity data (BI); details: Compound concentration 3.0 uM
Sequence of Serine/threonine-protein kinase B-raf (Homo sapiens) (P15056 whole entry): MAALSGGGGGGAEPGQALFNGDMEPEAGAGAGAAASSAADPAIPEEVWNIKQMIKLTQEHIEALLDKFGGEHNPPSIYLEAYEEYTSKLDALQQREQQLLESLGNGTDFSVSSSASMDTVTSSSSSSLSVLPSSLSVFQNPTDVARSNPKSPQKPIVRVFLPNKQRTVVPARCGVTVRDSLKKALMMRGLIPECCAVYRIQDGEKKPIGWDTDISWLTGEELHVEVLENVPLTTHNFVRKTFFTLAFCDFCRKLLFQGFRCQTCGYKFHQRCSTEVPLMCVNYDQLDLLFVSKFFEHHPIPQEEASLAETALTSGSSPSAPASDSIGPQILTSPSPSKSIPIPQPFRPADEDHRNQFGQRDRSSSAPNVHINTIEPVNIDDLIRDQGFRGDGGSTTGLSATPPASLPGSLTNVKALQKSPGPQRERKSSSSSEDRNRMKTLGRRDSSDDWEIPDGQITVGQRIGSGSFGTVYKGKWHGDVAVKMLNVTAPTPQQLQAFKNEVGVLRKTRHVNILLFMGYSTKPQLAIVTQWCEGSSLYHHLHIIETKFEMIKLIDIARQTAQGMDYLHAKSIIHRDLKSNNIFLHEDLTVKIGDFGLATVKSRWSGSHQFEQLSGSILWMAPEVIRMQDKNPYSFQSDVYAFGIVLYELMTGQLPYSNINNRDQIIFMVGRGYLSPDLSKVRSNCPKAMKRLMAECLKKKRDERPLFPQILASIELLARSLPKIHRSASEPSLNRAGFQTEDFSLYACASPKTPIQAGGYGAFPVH

[12] = molecular target: T3, Rhodopsin kinase GRK7 (Homo sapiens) (UniProt Q8WTQ7); assay: GRK7 Invitrogen selectivity data (BI); details: Compound concentration 3.0 uM
T3 sequence (whole entry): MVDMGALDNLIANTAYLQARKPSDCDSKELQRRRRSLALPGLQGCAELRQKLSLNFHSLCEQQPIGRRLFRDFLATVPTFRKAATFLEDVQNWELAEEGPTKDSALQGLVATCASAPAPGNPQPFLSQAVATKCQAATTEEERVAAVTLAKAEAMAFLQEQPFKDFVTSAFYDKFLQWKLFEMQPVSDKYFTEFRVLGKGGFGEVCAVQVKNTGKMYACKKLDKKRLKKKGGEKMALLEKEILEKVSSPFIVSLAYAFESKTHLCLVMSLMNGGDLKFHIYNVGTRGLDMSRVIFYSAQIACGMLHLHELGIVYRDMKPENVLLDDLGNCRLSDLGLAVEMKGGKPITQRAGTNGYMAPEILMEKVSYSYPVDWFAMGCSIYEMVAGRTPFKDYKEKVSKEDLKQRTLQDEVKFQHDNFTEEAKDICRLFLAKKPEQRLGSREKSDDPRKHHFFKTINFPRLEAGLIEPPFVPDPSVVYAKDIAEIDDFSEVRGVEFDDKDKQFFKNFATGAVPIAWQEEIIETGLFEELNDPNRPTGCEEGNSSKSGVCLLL

[13] = molecular target: Glutamate receptor ionotropic, NMDA 2A (Rattus norvegicus) (UniProt Q00959); assay: NMDAPHSI/R Eurofins-Panlabs selectivity data (BI); details: Compound concentration 10.0 uM
[14] = molecular target: Phosphatidylinositol 4-phosphate 3-kinase C2 domain-containing subunit beta (Homo sapiens) (UniProt O00750); assay: PIK3C2B Invitrogen selectivity data (BI); details: Compound concentration 3.0 uM
[15] = molecular target: Substance-K receptor (Homo sapiens) (UniProt P21452); assay: NK2/H Cerep selectivity data (BI); details: Compound concentration 20.0 uM
[16] = molecular target: Sodium-dependent serotonin transporter (Homo sapiens) (UniProt P31645); assay: 5HTTRANS/H Cerep selectivity data (BI); details: Compound concentration 20.0 uM
[17] = molecular target: AMPK alpha2/beta1/gamma1 (Homo sapiens) (UniProt P54646+P54619+Q9Y478); assay: AMPK A2B1G1 Invitrogen selectivity data (BI); type: protein-complex assay; details: Compound concentration 3.0 uM
[18] = molecular target: Hepatocyte growth factor receptor (Homo sapiens) (UniProt P08581); assay: MET Invitrogen selectivity data (BI); details: Compound concentration 3.0 uM
Sequence of Hepatocyte growth factor receptor (Homo sapiens) (P08581 whole entry): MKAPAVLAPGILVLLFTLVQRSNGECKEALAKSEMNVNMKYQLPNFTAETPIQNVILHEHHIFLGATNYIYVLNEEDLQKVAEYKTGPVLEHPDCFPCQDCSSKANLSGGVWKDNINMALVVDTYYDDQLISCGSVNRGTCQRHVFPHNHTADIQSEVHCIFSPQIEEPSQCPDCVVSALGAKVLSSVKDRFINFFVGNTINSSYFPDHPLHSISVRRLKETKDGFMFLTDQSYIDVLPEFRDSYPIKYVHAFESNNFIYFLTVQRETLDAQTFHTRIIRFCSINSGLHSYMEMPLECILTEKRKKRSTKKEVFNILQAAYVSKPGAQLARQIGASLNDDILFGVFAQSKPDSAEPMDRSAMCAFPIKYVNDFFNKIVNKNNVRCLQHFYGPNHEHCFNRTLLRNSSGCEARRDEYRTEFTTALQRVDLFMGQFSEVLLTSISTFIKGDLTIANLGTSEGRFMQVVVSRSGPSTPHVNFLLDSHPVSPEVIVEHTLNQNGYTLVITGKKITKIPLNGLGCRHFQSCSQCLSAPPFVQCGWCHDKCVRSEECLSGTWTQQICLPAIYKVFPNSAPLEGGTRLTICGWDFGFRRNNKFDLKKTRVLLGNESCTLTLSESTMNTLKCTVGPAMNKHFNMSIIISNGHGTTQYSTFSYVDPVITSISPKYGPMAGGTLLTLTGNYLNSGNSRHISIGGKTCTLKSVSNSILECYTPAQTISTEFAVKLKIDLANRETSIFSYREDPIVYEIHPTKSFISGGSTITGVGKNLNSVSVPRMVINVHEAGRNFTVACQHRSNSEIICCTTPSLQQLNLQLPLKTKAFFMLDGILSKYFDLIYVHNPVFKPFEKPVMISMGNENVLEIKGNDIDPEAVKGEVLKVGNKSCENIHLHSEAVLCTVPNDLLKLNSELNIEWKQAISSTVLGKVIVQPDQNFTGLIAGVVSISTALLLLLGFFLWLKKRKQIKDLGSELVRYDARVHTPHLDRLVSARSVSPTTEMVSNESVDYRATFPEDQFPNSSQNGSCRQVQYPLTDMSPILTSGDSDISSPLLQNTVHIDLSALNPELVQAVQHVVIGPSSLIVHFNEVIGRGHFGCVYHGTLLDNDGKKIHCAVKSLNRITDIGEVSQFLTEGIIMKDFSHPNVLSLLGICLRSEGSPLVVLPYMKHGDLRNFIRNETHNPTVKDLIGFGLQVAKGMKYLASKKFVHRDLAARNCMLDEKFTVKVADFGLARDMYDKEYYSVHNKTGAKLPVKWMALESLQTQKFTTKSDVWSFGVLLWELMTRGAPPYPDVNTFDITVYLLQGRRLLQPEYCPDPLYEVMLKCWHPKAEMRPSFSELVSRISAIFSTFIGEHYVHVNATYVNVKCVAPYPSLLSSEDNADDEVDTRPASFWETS

[19] = molecular target: Calcium/calmodulin-dependent protein kinase kinase 1 (Homo sapiens) (UniProt Q8N5S9); assay: CAMKK1 Invitrogen selectivity data (BI); details: Compound concentration 3.0 uM
[20] = molecular target: Proto-oncogene tyrosine-protein kinase Src (Homo sapiens) (UniProt P12931); assay: SRC N1 Invitrogen selectivity data (BI); details: Compound concentration 3.0 uM
[21] = molecular target: Insulin receptor (Homo sapiens) (UniProt P06213); assay: IRK(INSR)_CE Cerep selectivity data (BI); details: Compound concentration 20.0 uM
[22] = molecular target: Tyrosine-protein kinase Lyn (Homo sapiens) (UniProt P07948); assay: LYN B Invitrogen selectivity data (BI); details: Compound concentration 3.0 uM
Sequence of Tyrosine-protein kinase Lyn (Homo sapiens) (P07948 2-512 limits assumed): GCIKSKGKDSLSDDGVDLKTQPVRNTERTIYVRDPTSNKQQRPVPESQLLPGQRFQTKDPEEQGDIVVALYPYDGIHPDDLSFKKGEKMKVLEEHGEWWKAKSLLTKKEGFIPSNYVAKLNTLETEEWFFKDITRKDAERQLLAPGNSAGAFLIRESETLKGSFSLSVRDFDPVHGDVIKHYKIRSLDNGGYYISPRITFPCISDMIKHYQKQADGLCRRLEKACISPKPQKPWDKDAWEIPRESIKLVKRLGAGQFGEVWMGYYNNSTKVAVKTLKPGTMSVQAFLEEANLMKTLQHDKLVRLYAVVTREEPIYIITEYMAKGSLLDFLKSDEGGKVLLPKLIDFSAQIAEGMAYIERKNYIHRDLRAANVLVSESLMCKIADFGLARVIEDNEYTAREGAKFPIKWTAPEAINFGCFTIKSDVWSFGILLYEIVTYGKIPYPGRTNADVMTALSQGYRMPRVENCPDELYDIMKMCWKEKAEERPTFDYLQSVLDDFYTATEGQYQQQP

[23] = molecular target: Endothelin-1 receptor (Homo sapiens) (UniProt P25101); assay: ETA/H Cerep selectivity data (BI); details: Compound concentration 20.0 uM
[24] = molecular target: Serine/threonine-protein kinase MARK1 (Homo sapiens) (UniProt Q9P0L2); assay: MARK1 Invitrogen selectivity data (BI); details: Compound concentration 3.0 uM
[25] = molecular target: P2X purinoceptor (Oryctolagus cuniculus) (UniProt G1U3D6); assay: P2X/RB Eurofins-Panlabs selectivity data (BI); details: Compound concentration 10.0 uM
[26] = molecular target: Activated CDC42 kinase 1 (Homo sapiens) (UniProt Q07912); assay: TNK2 Invitrogen selectivity data (BI); details: Compound concentration 3.0 uM
[27] = molecular target: Ribosomal protein S6 kinase alpha-2 (Homo sapiens) (UniProt Q15349); assay: RPS6KA2 Invitrogen selectivity data (BI); details: Compound concentration 3.0 uM

Sequence of Phosphatidylinositol 4-kinase beta (Homo sapiens) (Q9UBF8 2-816 limits assumed): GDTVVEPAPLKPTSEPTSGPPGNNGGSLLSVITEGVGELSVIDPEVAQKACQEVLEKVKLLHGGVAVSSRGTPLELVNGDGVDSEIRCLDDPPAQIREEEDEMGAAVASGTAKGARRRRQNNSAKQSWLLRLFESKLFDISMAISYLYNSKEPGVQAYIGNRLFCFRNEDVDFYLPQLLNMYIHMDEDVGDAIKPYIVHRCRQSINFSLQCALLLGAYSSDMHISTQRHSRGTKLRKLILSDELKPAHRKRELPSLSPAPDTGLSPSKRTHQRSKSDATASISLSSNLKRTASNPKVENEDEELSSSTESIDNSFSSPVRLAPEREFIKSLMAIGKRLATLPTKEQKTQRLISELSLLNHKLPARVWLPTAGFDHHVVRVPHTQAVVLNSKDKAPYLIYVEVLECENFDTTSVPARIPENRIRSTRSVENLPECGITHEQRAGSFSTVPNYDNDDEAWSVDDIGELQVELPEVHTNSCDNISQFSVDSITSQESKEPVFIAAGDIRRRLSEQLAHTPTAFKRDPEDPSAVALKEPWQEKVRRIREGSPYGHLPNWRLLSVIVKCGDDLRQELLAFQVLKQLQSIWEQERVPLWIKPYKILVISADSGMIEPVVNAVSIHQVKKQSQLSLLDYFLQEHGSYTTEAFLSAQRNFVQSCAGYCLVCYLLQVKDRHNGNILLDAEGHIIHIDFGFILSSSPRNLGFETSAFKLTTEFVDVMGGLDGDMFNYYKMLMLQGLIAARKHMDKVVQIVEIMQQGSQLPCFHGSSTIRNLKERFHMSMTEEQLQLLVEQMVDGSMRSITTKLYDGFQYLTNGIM

CN(C)C(=O)Cn1cc(-c2nc(C3(c4ccc(-c5cnc(N)nc5)cc4)CC3)no2)cn1 [BI 0153]
inactive: residual activity [1] 83% | residual activity [2] 70%

CN(C)C(=O)Cn1cc(-c2nc([C@@](C)(c3ccc(-c4cnc(N)nc4)cc3)C3CC3)no2)cn1 [BI 665915]
85% (not active): activity at 20 µM [5]
inactive: residual activity [3] 98.5% | residual activity [4] 101% | residual activity [6] 103% | residual activity [7] 94% | residual activity [8] 96.5% | residual activity [9] 95.5% | residual activity [10] 98.5% | residual activity [11] 95% | residual activity [12] 101% | residual activity [13] 111% | residual activity [14] 108% | residual activity [15] 102% | residual activity [16] 103% | residual activity [17] 100% | residual activity [18] 97% | residual activity [19] 102% | residual activity [20] 85% | residual activity [21] 94% | residual activity [22] 89% | residual activity [23] 102% | residual activity [24] 98% | residual activity [25] 111% | residual activity [26] 99% | residual activity [27] 100%
